According to patent US7045512B2 (priority 2003, dated 2006):

Assays:
[1] = tested on: Erysiyphe graminis f.sp. hordei; experiment: Foliar spray for the control of barley powdery mildew; type: in vivo; details: greenhouse foliar spray, barley plants; for pest or weed control at 300 ppm: Hordeum vulgare, read-out: Foliar Application (Percent Control) Barley Powdery Mildew
Description: Foliar Spray for the Control of Barley Powdery Mildew caused by Erysiyphe graminis f.sp. hordei
Technical grade material at defined ppm rates (w/v) in an acetone:water mixture (1:9) containing 0.1% Tween 20 (v/v) is sprayed to near run-off onto 7-days-old greenhouse-grown barley plants (var. “Robust”) at the cotyledon stage. Treated plants are inoculated within 24 hours by brushing mildew-infected plants over the treated plants. Inoculated plants are kept in the greenhouse for 6–8 days for disease development. Disease severity is examined and the % control is calculated as [% disease on untreated plants−% disease on treated plants]/% diseases in untreated plants. The results of these tests are shown in Table 2A below under the heading “Foliar Application—Barley Powdery Mildew”.

Barley Powdery Mildew = experiment: Soil drench for the control of barley powdery mildew; type: in vivo, Erysiyphe graminis f.sp. hordei; details: 300 ppm, greenhouse soil drench
Description: (§1) Soil Drench for the Control of Barley or Cucumber Powdery Mildew
(§2) Technical grade material formulated as described for foliar sprays is dispensed at defined rates (ml/cm^3) into the soil in the pots for barley and cucumber in the stages as described for the foliar sprays. Treated plants are inoculated, within 24 hours with the respective powdery mildew species as described for the foliar spray tests. Inoculated plants are kept in the greenhouse for 6–8 days for disease development. Disease severity is examined and the % control is calculated as [% disease on untreated plants−% disease on treated plants]/% disease on untreated plants. The results of these tests are shown in Table 2B below under the heading “Drench Application—Barley Powdery Mildew” and “Drench Application—Cucumber Powdery Mildew”.

Uromyces appendiculatus = experiment: Foliar spray for the control of bean rust; type: in vivo; details: 300 ppm, greenhouse foliar spray, Pinto bean plants
Description: Foliar Spray for the Control of Bean Rust Caused by Uromyces appendiculatus
Technical grade material at defined ppm rates (w/v) in an acetone:water mixture (1:9) containing 0.1% Tween 20 (v/v) is sprayed to near run-off onto 10-days-old greenhouse-grown Pinto bean plants (var. “Othello”) in the second leaf stage. Treated plants are inoculated within 24 hours with an aqueous suspension of approximately 20,000 uredospores of Uromyces appendiculatus harvested from rust-infected plants. Inoculated plants are placed into a high humidity chamber for 24 hr and then transferred to the greenhouse for two weeks for disease development. Disease severity is examined and the % control is calculated as [% disease on untreated plants−% disease on treated plants]/% disease on untreated plants. The results of these tests are shown in Table 2A below under the heading “Foliar Application—Bean Rust”.

Botrytis cinerea [2] = experiment: microbe, parasite or virus in culture; type: cell-based
Rhizoctonia solani = experiment: microbe, parasite or virus in culture; type: cell-based
Cucumber Powdery Mildew = experiment: Soil drench for the control of cucumber powdery mildew; type: in vivo; details: 300 ppm, greenhouse soil drench
Description: as §1, §2

Pythium ultimum = experiment: microbe, parasite or virus in culture; type: cell-based
Helminthosporium sativum = experiment: Foliar spray for the control of barley blotch; type: in vivo; details: greenhouse foliar spray, barley plants; for pest or weed control at 300 ppm: Helminthosporium, read-out: Foliar Application (Percent Control) Barley Blotch
Description: Foliar Spray for the Control of Barley Blotch Caused by Helminthosporium sativum
Technical grade material at defined ppm rates (w/v) in an acetone:water mixture (1:9) containing 0.1% Tween 20 (v/v) is sprayed to near run-off onto 7-days-old greenhouse-grown barley plants (var. “Robust”) at the cotyledon stage. Treated plants are inoculated within 24 hours from spraying with an aqueous suspension of approximately 15,000 conidia/ml of Helminthosporium sativum grown on artificial medium. Inoculated plants are placed into a high humidity chamber for 24 hr and then transferred to the greenhouse for 4–5 days for disease development. Disease severity is examined and the % control is calculated as [% disease on untreated plants−% disease on treated plants]/% disease on untreated plants.
The results of these tests are shown in Table 2A below under the heading “Foliar Application—Barley Blotch”.

Botrytis cinerea [3] = experiment: Foliar spray for the control of geranium gray mold; type: in vivo; details: 300 ppm, greenhouse foliar spray, geranium plants
Description: Foliar Spray for the Control of Geranium Gray Mold Caused by Botrytis cinerea
Technical grade material at defined ppm rates (w/v) in an acetone:water mixture (1:9) containing 0.1% Tween 20 (v/v) is sprayed to near run-off onto mature greenhouse-grown geranium plants (var. “Pinto White”) in the second leaf stage. Treated plants are inoculated within 24 hours with an aqueous suspension of approximately 100,000 conidia/ml of Botrytis cinerea grown on artificial medium. Inoculated plants are placed into a high humidity chamber for 5 days and then transferred to the greenhouse for one day for disease development. Disease severity is examined and the % control is calculated as [% disease on untreated plants−% disease on treated plants]/% disease on untreated plants. The results of these tests are shown in Table 2A below under the heading “Foliar Application—Geranium Gray Mold”.

Pyricularia oryzae = experiment: whole plant or invertebrate; type: in vivo; details: for pest or weed control at 300 ppm: Pyricularia oryzae, foliar, read-out: Foliar Application (Percent Control) Rice Blast
Phytophthora infestans [4] = experiment: microbe, parasite or virus in culture; type: cell-based
Sclerotium rolfsii = type: cell-based
Phytophthora infestans [5] = type: in vivo; details: 300 ppm, greenhouse foliar spray, tomato plants
Fusarium nivale = experiment: microbe, parasite or virus in culture; type: cell-based
[6] = Botrytis cinerea, 48 h, read-out: Percent Control Botrytis cinerea
[7] = Rhizoctonia solani, 48 h, read-out: Percent Control Rhizoctonia solani
[8] = Globisporangium ultimum, 48 h, read-out: Percent Control Pythium ultimum
[9] = Phytophthora infestans, 48 h, read-out: Percent Control Phytophthora infestants
[10] = Microdochium nivale, 48 h, read-out: Percent Control Fusarium nivale

Row | Compound | pest or weed control at 300 ppm [1] | Drench Application (Percent Control) Barley Powdery Mildew (Barley Powdery Mildew) | Foliar Application (Percent Control) Bean Rust (Uromyces appendiculatus) | inhibition of growth at 100 ppm (Botrytis cinerea [2]; [6]) | inhibition of growth at 100 ppm (Rhizoctonia solani; [7]) | Drench Application (Percent Control) Cucumber Powdery Mildew (Cucumber Powdery Mildew) | inhibition of growth at 100 ppm (Pythium ultimum; [8]) | pest or weed control at 300 ppm (Helminthosporium sativum) | Foliar Application (Percent Control) Geranium Gray Mold (Botrytis cinerea [3]) | pest or weed control at 300 ppm (Pyricularia oryzae) | inhibition of growth at 100 ppm (Phytophthora infestans [4]; [9]) | Percent Control Sclerotium rolfsii (Sclerotium rolfsii) | Foliar Application (Percent Control) Tomato Late Blight (Phytophthora infestans [5]) | inhibition of growth at 100 ppm (Fusarium nivale; [10]) | inhibition of growth at 10 ppm (Botrytis cinerea [2]; [6]) | inhibition of growth at 10 ppm (Rhizoctonia solani; [7]) | inhibition of growth at 10 ppm (Pythium ultimum; [8]) | inhibition of growth at 10 ppm (Phytophthora infestans [4]; [9]) | inhibition of growth at 10 ppm (Fusarium nivale; [10]) | further results
1 | CC(C)OC(=O)NNc1ccc(Oc2cccc(C(F)(F)F)c2)cc1 [Compound 1, 1-methylethyl 2-[4-[3-(trifluoromethyl)phenoxy]phenyl]hydrazinecarboxylate] | 90% | 0% | 97% | 100% | 91% | 0% | 100% | 97% | 87% | 79% | 100% | 100% | 12% | 29% |  |  |  |  |  | 
2 | CC(C)OC(=O)N1CN(C)CN1c1ccc(Oc2cccc(C(F)(F)F)c2)c(F)c1 [Compound 10, 1-methylethyl 2-[3-fluoro-4-[3-(trifluoromethyl)phenoxy]phenyl]-4-methyl-1,2,4-triazolidine-1-carboxylate] | 100% |  |  | 0% | 79% |  | 0% | 90% | 0% | 0% | 0% |  |  | 0% |  |  |  |  |  | 
3 | CC(C)OC(=O)NN(C)c1ccc(Oc2cccc(C(F)(F)F)c2)cc1 [Compound 3, 1-methylethyl 2-methyl-2-[4-[3-(trifluoromethyl)phenoxy]phenyl]hydrazine carboxylate] | 62% | 0% | 0% |  |  | 0% |  | 0% | 87% | 10% |  |  |  |  |  |  |  |  |  | inhibition of growth at 50 ppm (Botrytis cinerea [2]; [6]): 100%; inhibition of growth at 50 ppm (Rhizoctonia solani; [7]): 63%; inhibition of growth at 50 ppm (Pythium ultimum; [8]): 100%; inhibition of growth at 50 ppm (Phytophthora infestans [4]; [9]): 79%; inhibition of growth at 50 ppm (Fusarium nivale; [10]): 82%
4 | CC(C)OC(=O)NNc1ccc(-c2cccc(C(F)(F)F)c2)c(F)c1 [Compound 8, isopropyl 2-[2-fluoro-3′-(trifluoromethyl)-1,1′-biphenyl-4-yl]hydrazine-carboxylate] | 0% |  |  |  |  |  |  | 98% | 90% | 70% |  |  | 0% |  | 63% | 58% | 26% | 18% | 22% | 
5 | CCC(=NNc1ccc(Oc2cccc(C(F)(F)F)c2)c(F)c1)[N+](=O)[O-] [Compound 12, 1-{3-fluoro-4-[3-(trifluoromethyl)phenoxy]phenyl}-2-(1-nitropropylidene)-hydrazine] | 80% |  |  |  |  |  |  | 0% | 0% | 0% |  |  | 0% |  | 18% | 68% | 3% | 0% | 20% | 
6 | CC(C)OC(=O)NN(C(=O)C(F)(F)F)c1ccc(Oc2cccc(Cl)c2)nc1 [Compound 6] |  | 0% | 0% |  |  | 0% |  |  | 82% |  |  | 98% | 0% |  |  |  |  |  |  | Foliar Application (Percent Control) Barley Powdery Mildew ([1]; 300 ppm): 0%; Percent Control Botrytis cinerea (Botrytis cinerea [2]): 98%; Percent Control Rhizoctonia solani (Rhizoctonia solani): 100%; Percent Control Pythium ultimum (Pythium ultimum): 25%; Foliar Application (Percent Control) Barley Blotch (Helminthosporium sativum; 300 ppm): 97%; Foliar Application (Percent Control) Rice Blast (Pyricularia oryzae; 300 ppm, greenhouse foliar spray, rice plants): 92%; Percent Control Phytophthora infestants (Phytophthora infestans [4]; in vitro, rate 100 ppm, 48 hours): 100%; Percent Control Fusarium nivale (Fusarium nivale): 71%
7 | CC(C)OC(=O)NN(C(=O)C(F)(F)F)c1ccc(Oc2cccc(C(F)(F)F)c2)cc1 [Compound 2, 1-methylethyl 2-(trifluoroacetyl)-2-[4-[3-(trifluoromethyl)phenoxy]phenyl]-hydrazine carboxylate] | 25% | 0% | 0% | 90% | 82% | 0% | 100% | 99% |  | 15% | 100% | 67% |  | 20% |  |  |  |  |  | 
8 | CC(=O)NNc1ccc(Oc2cccc(C(F)(F)F)c2)c(F)c1 [Compound 7, N′-{3-fluoro-4-[3-(trifluoromethyl)phenoxy]phenyl}acetohydrazide] | 80% |  |  |  |  |  |  | 80% | 80% | 0% |  |  | 0% |  | 30% | 80% | 8% | 0% | 8% | 
9 | CC(C)OC(=O)N=Nc1ccc(Oc2cccc(C(F)(F)F)c2)cc1 [Compound 9, 1-methylethyl [4-[3-(trifluoromethyl)phenoxy]phenyl]diazene carboxylate] | 15% | 25% | 45% | 77% | 22% | 0% | 0% | 97% |  | 98% | 9% | 91% |  | 75% |  |  |  |  |  | 
